# Where two headings read alike, the source gives them in different places.
# Legend:
# [1] = test system: Beet Armyworm (Spodoptera exigua) ("BAW"), second instar larvae; test: Bioassay on beet armyworm (BAW), 128-well diet tray assay; type: in vivo; details: for pest or weed control at 50 µg/cm2: Spodoptera exigua; for BAW rating: Table ABC, species BAW, C = not tested, D = no activity noticed
# Outline: (§1)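 Each value represents average percent mortality from eight wells. Larvae were kept in clear-covered trays at 25° C. for five to seven days on a 14-hour light, 10-hour dark schedule before scoring.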
# [2] = test system: Cabbage Looper (Trichoplusia ni) ("CL"), second instar larvae; test: Bioassay on cabbage looper (CL), 128-well diet tray assay; type: in vivo; details: for pest or weed control at 50 µg/cm2: Trichoplusia ni; for CL rating: Table ABC, species CL, C = not tested, D = no activity noticed
# Outline: as §1
# [3] = read-out: BAW (Biological Results, rating)
# [4] = read-out: CL (Biological Results, rating)
SMILES,pest or weed control at 50 µg/cm2 ([1]; read-out: BAW rating),pest or weed control at 50 µg/cm2 ([2]; read-out: CL rating),"pest or weed control at 50 µg/cm2 [1, 3]","pest or weed control at 50 µg/cm2 [2, 4]",further results
"COC(c1ccc(C)cc1N1C(=O)CS/C1=N\C(=O)Nc1ccc(-c2cn(-c3ccc(C(F)(F)F)cn3)cn2)cc1F)C(F)(F)F (stereo not shown) [Compound J485, (Z)-1-(2-Fluoro-4-(1-(5-(trifluoromethyl)pyridin-2-yl)-1H-imidazol-4-yl)phenyl)-3-(3-(5-methyl-2-(2,2,2-trifluoro-1-methoxyethyl)phenyl)-4-oxothiazolidin-2-ylidene)urea]",50 to 100%,50 to 100%,–,–,–
"CCCc1ccc(C)cc1N1C(=O)CS/C1=N\C(=O)Nc1ccc(-c2cn(-c3ccc(S(F)(F)(F)(F)F)cc3)cn2)cc1F [Compound J590, (Z)-1-(2-Fluoro-4-(1-(4-(pentafluoro-λ^6-sulfaneyl)phenyl)-1H-imidazol-4-yl)phenyl)-3-(3-(5-methyl-2-propylphenyl)-4-oxothiazolidin-2-ylidene)urea]",50 to 100%,50 to 100%,–,–,–
Cc1cc(-c2ncn(-c3ccc(OC(F)(F)F)cc3)n2)ccc1NC(=O)/N=C1\SCC(=O)N1c1c(COCC(F)(F)F)ccc(C)c1C [Compound J679],–,–,–,–,BAW rating [1]: A (50-100); CL rating [2]: A (50-100)
"COC(C)c1ccc(C)cc1N1C(=O)CS/C1=N\C(=O)Nc1c(F)cc(-c2ncn(-c3ccc(OC(F)(F)F)cc3)n2)cc1F (stereo not shown) [Compound J81, (Z)-1-(2,6-Difluoro-4-(1-(4-(trifluoromethoxy)phenyl)-1H-1,2,4-triazol-3-yl)phenyl)-3-(3-(2-(1-methoxyethyl)-5-methylphenyl)-4-oxothiazolidin-2-ylidene)urea]",–,–,50 to 100%,50 to 100%,–
"Cc1ccc(COCc2cccc(F)c2)c(N2C(=O)CS/C2=N\C(=O)Nc2ccc(-c3ncn(-c4ccc(OC(F)(F)F)cc4)n3)cc2F)c1 [Compound J568, (Z)-1-(2-fluoro-4-(1-(4-(trifluoromethoxy)phenyl)-1H-1,2,4-triazol-3-yl)phenyl)-3-(3-(2-(((3-fluorobenzyl)oxy)methyl)-5-methylphenyl)-4-oxothiazolidin-2-ylidene)urea]",50 to 100%,50 to 100%,–,–,–
"CC(C)c1ccc(N(C)C)cc1N1C(=O)CS/C1=N\C(=O)Nc1ccc(-c2ncn(-c3ccc(C(F)(F)F)cn3)n2)cc1Cl [Compound J296, (Z)-1-(2-Chloro-4-(1-(5-(trifluoromethyl)pyridin-2-yl)-1H-1,2,4-triazol-3-yl)phenyl)-3-(3-(5-(dimethylamino)-2-isopropylphenyl)-4-oxothiazolidin-2-ylidene)urea]",–,–,50 to 100%,50 to 100%,–
CCOC(C)c1ccc(C)cc1N1C(=O)CS/C1=N\C(=O)Nc1ccc(-c2ncn(-c3ccc(C(F)F)cn3)n2)cc1F (stereo not shown) [Compound J354],–,–,–,–,"BAW (Biological Results, rating) ([1]; Beet Armyworm (Spodoptera exigua), C = Not Tested): A (50-100); CL (Biological Results, rating) ([2]; Cabbage Looper (Trichoplusia ni), C = Not Tested): A (50-100)"
"Cc1ccc(Cc2ccc(F)cc2)c(N2C(=O)CS/C2=N\C(=O)Nc2ccc(-c3ncn(-c4ccc(S(F)(F)(F)(F)F)cc4)n3)cc2C#N)c1 [Compound J683, (Z)-1-(2-Cyano-4-(1-(4-(pentafluoro-λ^6-sulfaneyl)phenyl)-1H-1,2,4-triazol-3-yl)phenyl)-3-(3-(2-(4-fluorobenzyl)-5-methylphenyl)-4-oxothiazolidin-2-ylidene)urea]",50 to 100%,50 to 100%,–,–,–
"CC(C)c1cc(-c2ncn(-c3ccc(OC(F)(F)F)cc3)n2)ccc1NC(=O)/N=C1\SCC(=O)N1c1cc(N(C)C)ccc1OCCC(F)(F)F [Compound J111, (Z)-1-(3-(5-(Dimethylamino)-2-(3,3,3-trifluoropropoxy)phenyl)-4-oxothiazolidin-2-ylidene)-3-(2-isopropyl-4-(1-(4-(trifluoromethoxy)phenyl)-1H-1,2,4-triazol-3-yl)phenyl)urea]",–,–,50 to 100%,50 to 100%,–
"Cc1cc(-n2cnc(-c3ccc(OC(F)(F)F)cc3)n2)ccc1NC(=O)/N=C1\SCC(=O)N1c1cc(N(C)C)ccc1C(C)C [Compound J469, (Z)-1-(3-(5-(Dimethylamino)-2-isopropylphenyl)-4-oxothiazolidin-2-ylidene)-3-(2-methyl-4-(3-(4-(trifluoromethoxy)phenyl)-1H-1,2,4-triazol-1-yl)phenyl)urea]",50 to 100%,50 to 100%,–,–,–
Cc1cc(COCC(F)(F)F)c(N2C(=O)CS/C2=N\C(=O)Nc2ccc(-c3ncn(-c4cccc(OC(F)(F)F)c4)n3)cc2F)cc1C [Compound J738],–,–,–,–,BAW rating [1]: A (50-100); CL rating [2]: A (50-100)
"Cc1ccc(C(C)C)c(N2C(=O)CS/C2=N\C(=O)Nc2ccc(-c3cn(-c4ccc(OC(F)(F)F)cc4)cn3)cc2F)c1 [Compound J473, (Z)-1-(2-Fluoro-4-(1-(4-(trifluoromethoxy)phenyl)-1H-imidazol-4-yl)phenyl)-3-(3-(2-isopropyl-5-methylphenyl)-4-oxothiazolidin-2-ylidene)urea]",50 to 100%,50 to 100%,–,–,–
CCOCc1ccc(C)cc1N1C(=O)CS/C1=N\C(=O)Nc1ccc(-c2ncn(-c3ccc(S(F)(F)(F)(F)F)cc3)n2)cc1F [Compound J445],–,–,–,–,BAW rating [1]: A (50-100); CL rating [2]: A (50-100)
COc1cc(COCC(F)(F)F)c(N2C(=O)CS/C2=N\C(=O)Nc2ccc(-c3ncn(-c4ccc(OC(F)(F)F)cc4)n3)cc2F)cc1OC [Compound J560],–,–,–,–,BAW rating [1]: A (50-100); CL rating [2]: A (50-100)
"CCCc1ccc(N(C)C)cc1N1C(=O)CS/C1=N\C(=O)Nc1ccc(-c2ncn(-c3ccc(OC(F)(F)F)cn3)n2)cc1C [Compound J254, (Z)-1-(3-(5-(Dimethylamino)-2-propylphenyl)-4-oxothiazolidin-2-ylidene)-3-(2-methyl-4-(1-(5-(trifluoromethoxy)pyridin-2-yl)-1H-1,2,4-triazol-3-yl)phenyl)urea]",–,–,50 to 100%,50 to 100%,–
"COC(C)c1ccc(C)cc1N1C(=O)CS/C1=N\C(=O)Nc1ccc(-c2cn(-c3ccc(C(F)(F)F)cc3)cn2)cc1C (stereo not shown) [Compound J525, (Z)-1-(3-(2-(1-Methoxyethyl)-5-methylphenyl)-4-oxothiazolidin-2-ylidene)-3-(2-methyl-4-(1-(4-(trifluoromethyl)phenyl)-1H-imidazol-4-yl)phenyl)urea]",50 to 100%,50 to 100%,–,–,–
"Cc1ccc(COCC(F)(F)F)c(N2C(=O)CS/C2=N\C(=O)Nc2ccc(-c3ncn(-c4ccc(OC(F)(F)F)cn4)n3)cc2C#N)c1 [Compound J265, (Z)-1-(2-Cyano-4-(1-(5-(trifluoromethoxy)pyridin-2-yl)-1H-1,2,4-triazol-3-yl)phenyl)-3-(3-(5-methyl-2-((2,2,2-trifluoroethoxy)methyl)phenyl)-4-oxothiazolidin-2-ylidene)urea]",–,–,50 to 100%,50 to 100%,–
"Cc1cccc(N2C(=O)CS/C2=N\C(=O)Nc2ccc(-n3cnc(-c4ccc(OC(F)(F)F)cc4)n3)cc2F)c1COCC(F)(F)F [Compound J703, (Z)-1-(2-Fluoro-4-(3-(4-(trifluoromethoxy)phenyl)-1H-1,2,4-triazol-1-yl)phenyl)-3-(3-(3-methyl-2-((2,2,2-trifluoroethoxy)methyl)phenyl)-4-oxothiazolidin-2-ylidene)urea]",50 to 100%,50 to 100%,–,–,–
"COC(C)c1ccc(C)cc1N1C(=O)CS/C1=N\C(=O)Nc1ccc(-c2ncn(-c3ccc(C(F)(F)F)cc3)n2)cc1F (stereo not shown) [Compound J62, (Z)-1-(2-Fluoro-4-(1-(4-(trifluoromethyl)phenyl)-1H-1,2,4-triazol-3-yl)phenyl)-3-(3-(2-(1-methoxyethyl)-5-methylphenyl)-4-oxothiazolidin-2-ylidene)urea]",–,–,50 to 100%,50 to 100%,–
"CCCOc1ccc(C)cc1N1C(=O)CS/C1=N\C(=O)Nc1ccc(-c2ncn(-c3ccc(OC(F)(F)F)cc3)n2)cc1F [Compound J125, (Z)-1-(2-Fluoro-4-(1-(4-(trifluoromethoxy)phenyl)-1H-1,2,4-triazol-3-yl)phenyl)-3-(3-(5-methyl-2-propoxyphenyl)-4-oxothiazolidin-2-ylidene)urea]",–,–,50 to 100%,50 to 100%,–
"N#Cc1ccc(OCCC(F)(F)F)c(N2C(=O)CS/C2=N\C(=O)Nc2ccc(-c3ncn(-c4ccc(SC(F)(F)F)cc4)n3)cc2)c1 [Compound J392, (Z)-1-(3-(5-Cyano-2-(3,3,3-trifluoropropoxy)phenyl)-4-oxothiazolidin-2-ylidene)-3-(4-(1-(4-((trifluoromethyl)thio)phenyl)-1H-1,2,4-triazol-3-yl)phenyl)urea]",50 to 100%,50 to 100%,–,–,–
"Cc1ccc(COCC(F)(F)F)c(N2C(=O)CS/C2=N\C(=O)Nc2ccc(-c3nnc(-c4ccc(OC(F)(F)F)cc4)o3)cc2F)c1 [Compound J430, (Z)-1-(2-Fluoro-4-(5-(4-(trifluoromethoxy)phenyl)-1,3,4-oxadiazol-2-yl)phenyl)-3-(3-(5-methyl-2-((2,2,2-trifluoroethoxy)methyl)phenyl)-4-oxothiazolidin-2-ylidene)urea]",50 to 100%,50 to 100%,–,–,–
"CCCc1ccc(C)cc1N1C(=O)CS/C1=N\C(=O)Nc1ccc(-c2ncn(-c3ccc(OC(F)(F)F)cc3)n2)cc1C#N [Compound J248, (Z)-1-(2-Cyano-4-(1-(4-(trifluoromethoxy)phenyl)-1H-1,2,4-triazol-3-yl)phenyl)-3-(3-(5-methyl-2-propylphenyl)-4-oxothiazolidin-2-ylidene)urea]",–,–,50 to 100%,50 to 100%,–

# From patent US20230077362A1 (CORTEVA AGRISCIENCE LLC, priority 2019, published 2023)
